The text below walks through data of US20230172882A1, “Method For Treating Pancreatic Cancer” (Lantern Pharma Inc., priority 2020, published 2023).

The IC50 is the midpoint of a concentration-inhibition curve.

Data set [1] concerns Capan-1 cell line derived xenograft tumors. The data set is described as follows: Capan-1 cell line derived xenograft tumors in SCID mice. The class given is in vivo. The conditions noted are these: 3 mg/kg intraperitoneal, thrice weekly for 3 weeks; end of study period, 60 days. The protocol: All animal studies were carried out in compliance with National Institutes of Health Guidelines for animals. The doses were selected to be tolerated in xenografts. Capan-1 cell line derived xenograft tumors were implanted in SCID mice and treated either with (a) vehicle control of 95% saline/5% ethanol (N=3) or (b) 3 mg/kg LP-184 (N=5) administered by intraperitoneal injection over thrice weekly doses for 3 weeks. In other words, one group was treated with LP-184 and the other group was treated with the vehicle control.

For data set [2], the system named is pancreatic cancer cell lines. The data set is described as follows: Cell viability, first study of 4 pancreatic cancer cell lines, 72 h. It is filed as cell-based. The procedure: (§1) Individual cell lines were treated with LP-184 for 72 hours and cell viability was assayed. IC50 values were generated from dose response curves plotted in GraphPad Prism.
The subject of data set [3] is pancreatic cancer cell lines. Briefly: Cell viability, second study of pancreatic cancer cell lines, 72 h. The class given is cell-based. The conditions noted are these: treated 72 hours, range across cell lines (FIG. 2), read-out: cytotoxicity in terms of IC50 value. The protocol:
as §1

Consider HydroxyUreaMethyl Acylfulvene [LP-184], for which, in data set [1], the “tumor volume growth / tumor regression” value is recorded as “Complete tumor regression”. The “potency in pancreatic cancer cell lines” value in data set [2] (FIG. 1 and FIG. 2, 72 hours) was “nanomolar potency”. In addition, the 50% inhibitory concentration (IC50) is 110 to 310 nM in data set [2] (first study of 4 pancreatic cancer cell lines, treated 72 hours, range across cell lines (FIG. 1), read-out: cytotoxicity in terms of IC50 values) and 130 to 180 nM in data set [3].
